SMILES strings stand for the structures.

Holding throughout (format): cell-based, human
The test system of assay [1] is HEK‐293. Kind of assay: MTT cytotoxicity assay in control cell line HEK-293. Particulars: compound alone, non-tumoral control cell line, read-out: IC50 (μM) in HEK‐293 (mean ± SD). The method, then: TNBC cell lines (ER^−, PR^−, HER2^−)—MDA‐MB‐231 (ATCC HTB‐26) and MDA‐MB‐468 (ATCC HTB‐132) were procured from ATCC and cultured in Roswell Park Memorial Institute Media (RPMI‐1640) and Dulbecco's Modified Eagle's Medium (DMEM), respectively, supplemented with 10% FBS and 1% Penicillin–Streptomycin solution. Cells were maintained at 5% CO2 at 37°C in a humid atmosphere.[6], [26] The control cell line, Human Embryonic Kidney—HEK‐293 (ATCC CRL‐3216) was also obtained from ATCC and cultured in DMEM.[5], [25]
To evaluate the cytotoxicity profile of the potential EGFR inhibitors (compounds) against TNBC cell lines—MDA‐MB‐231, MDA‐MB‐468, and control cell line HEK293, cells were seeded at a cell density of 5 × 10^3 cells/well in complete medium onto 96‐well plates. Here, the non‐tumoral human embryonic kidney (HEK293) epithelial cells have been utilized as a control cell line to compare the IC50 values of the compounds between cancerous and non‐cancerous cell lines with a big therapeutic window. The use of HEK293 cells as compared to other non‐cancerous cell lines are easy to maintain in culture and the results obtained from HEK293 are highly reproducible and consistent.[27] Briefly, the cells were incubated at 37°C for 12 h to attain morphology. After 12 h, cells were serum starved by replacing the complete media with media containing 2% FBS to synchronize the cells. Post‐12 h of synchronization, cells were treated with an increasing concentration (0.1, 1, 10, 100 μM) of all the compounds (1a, 1b, 1c, 1d, 1e, 1f, 1g, 1h, 1i, 1j, 1k). Separately, TNBC cells were treated with increasing concentration (0.01, 0.1, 1 μM) of Doxorubicin (Sigma‐Aldrich, St Louis, MO, USA) in presence of the selected compounds (1c, 1e, 1g, 1h, 1j, and 1k) at 5 μM concentration or combination of selected compounds (1c, 1e, 1g, 1h, 1j, and 1k) at increasing concentration (1, 2.5, 5, 10 μM) in presence of Doxorubicin (0.01 μM) for 48 h. In addition, the CD24^+‐breast cancer cells and CD24^−/CD44^+‐breast CSC populations, being sorted by Magnetic Activated Cell Sorting (MACS) from MDA‐MB‐231 cells as described previously,[6] were also treated with increasing concentrations of Doxorubicin (0.01–1 μM), in the presence or absence of 1e (10–30 μM), or PD153035 (10 μM) (Sigma‐Aldrich, St Louis, MO, USA). MTT assay was performed to evaluate the cytotoxicity of these compounds against the TNBC cell lines, and the sorted populations as described previously.[6] All the experiments were performed thrice and the IC50 values of the compounds and Doxorubicin were calculated using GraphPad Prism software version 9 (San Diego, CA, USA). Similarly, the percent inhibition of the sorted cell populations by chemotherapeutic drug, doxorubicin in the absence/presence of potent compound 1e or standard EGFR inhibitor, PD153035 was evaluated utilizing GraphPad Prism Version 9 (San Diego, CA, USA).

Assay [2] relates to MDA‐MB‐231 cells. Kind of assay: Apoptosis assay, Hoechst 33342 staining. Conditions: MDA-MB-231, combinatorial treatment with doxorubicin, 48 h, vs other treatment groups. The method, then: MDA‐MB‐231 cells were seeded at a density of 3 × 10^4 cells/well and cultured on a coverslip for 24 h at 37°C followed by 12 h serum starvation in 6‐well plates. The cells were treated with Doxorubicin (0.01 and 0.1 μM) in the absence or presence of compounds—1c, 1e, 1g, 1h, 1j, and 1k and incubated for 48 h. Post‐treatment, the cells were fixed using 4% Paraformaldehyde and stained with Hoechst 33342 dye (2 mg/mL; Invitrogen, USA) for 30 min. Apoptotic cells were identified by visualizing the fragmentation and condensation of nuclei using a confocal microscope (Olympus, USA).[30]

The subject of assay [3] is MDA‐MB‐231. Briefly: Cell migration (chemotaxis), Boyden-Chamber assay. Particulars: Doxorubicin 0.01 μM + compound 5 μM (PD153035 10 μM) vs 10% FBS and Doxorubicin alone. As for the experimental part: (§1) TNBC cell lines—MDA‐MB‐231, MDA‐MB‐468, and the sorted CD24^+‐breast cancer cells, and CD24^−/CD44^+‐breast CSC populations from MDA‐MB‐231 [6] were seeded at a density of 1 × 10^6 cells/well to evaluate their migratory potential by Boyden‐Chamber assay. […] At the end of the treatment period, the cells were plated at a density of 5 × 10^3 cells/well in the upper chamber of the Boyden chamber assembly and 10% FBS in the lower chamber was used as a chemoattractant. Separately, the cells in the upper chamber were treated with Doxorubicin (0.01–0.1 μM) alone or with the potential EGFR inhibitors (compounds—1c, 1e, 1g, 1h, 1j, and 1k (5 μM) based on their low IC50 values) or a commercial EGFR inhibitor, PD153035 (10 μM) and incubated for 4 h followed by fixation and staining as described previously.[28], [29]

For assay [4], the system named is MDA‐MB‐468. Kind of assay: Cell migration (chemotaxis), Boyden-Chamber assay. Conditions: Doxorubicin 0.01 μM + compound 5 μM (PD153035 10 μM) vs 10% FBS and Doxorubicin alone. As for the experimental part: as §1
Assay [5] has as its system CD24^−/CD44^+‐breast CSC populations. Briefly: Cell migration (chemotaxis), Boyden-Chamber assay, sorted cells. Particulars: sorted CD24^−/CD44^+ CSCs; Doxorubicin 0.01 μM + 1e 5 μM vs 10% FBS. As for the experimental part:
as §1

Assay [6] relates to CD24^+‐breast cancer cells. The assay is described as above. Conditions: Doxorubicin 0.01 μM + 1e 5 μM vs 10% FBS. The method, then: as §1

A word on the IC50: it is the midpoint of a concentration-inhibition curve. With `c1cncc(C(c2c[nH]c3ccccc23)c2c[nH]c3ccccc23)c1` [1e], in assay [1], the IC50 turned out to be 278 ± 13.5 µM. The “doxorubicin‐induced nuclear fragmentation (apoptosis)” value in assay [2] is “markedly increased”. Further, the migratory potential entry was “significant decrease” in assay [3], “significant decrease” in assay [4], “significantly reduced” in assay [5] and “significantly reduced” in assay [6].

The values are drawn from article PMC10961089, “Epidermal growth factor receptor inhibition potentiates chemotherapeutics‐mediated sensitization of metastatic breast cancer stem cells” (Cancer Reports, 2024).
